# Results published in the supplement of paper PMC10307832.
# Tests used:
# Assay in all cases: relative viability (nuclei count vs DMSO), 5 days (fraction); higher = more cells survive
# [1] = compound: C1=CC=C(C(=C1)C2=CC=C(C=C2)C3=CSC4=C3C(=C(C(=O)N4)C#N)O)O + Cc1nc(Nc2ncc(C(=O)Nc3c(C)cccc3Cl)s2)cc(N2CCN(CCO)CC2)n1 [Dasatinib] (partner 0.075 µM)
# Summary of the method: (§1)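 Medians of duplicate plates are given as relative viability. That measure is the nuclei count in treated wells divided by the count in vehicle wells. Counts were taken on 4× images of lung cancer cell lines in 1536-well plates, 5 days after pin-tool dosing the day after seeding with one drug alone or a fixed anchor-drug dose plus five library-drug doses (not always all listed) in √10 steps.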
# [2] = compound: CC1=CN2C(=O)C=C(N=C2C(=C1)C(C)NC3=CC=CC=C3)N4CCOCC4 [TGX 221] + CS(=O)(=O)N1CCN(Cc2cc3nc(-c4cccc5[nH]ncc45)nc(N4CCOCC4)c3s2)CC1 [Pictilisib] (partner 1 µM)
# Summary of the method: as §1
# [3] = compound: CC1=CN2C(=O)C=C(N=C2C(=C1)C(C)NC3=CC=CC=C3)N4CCOCC4 [TGX 221] + Cc1nc(Nc2ncc(C(=O)Nc3c(C)cccc3Cl)s2)cc(N2CCN(CCO)CC2)n1 [Dasatinib] (partner 0.075 µM)
# Summary of the method: as §1
# [4] = compound: CC1=CN2C(=O)C=C(N=C2C(=C1)C(C)NC3=CC=CC=C3)N4CCOCC4 [TGX 221] + NC(=O)Nc1cc(-c2cccc(F)c2)sc1C(=O)N[C@H]1CCCNC1 [AZD7762] (partner 0.2 µM)
# Summary of the method: as §1
Cell Line,relative viability ([1]; first compound 0.08 µM),relative viability ([1]; first compound 0.253 µM),relative viability ([1]; first compound 0.8 µM),relative viability ([1]; first compound 2.53 µM),relative viability ([1]; first compound 8 µM),relative viability ([2]; first compound 0.08 µM),relative viability ([2]; first compound 0.253 µM),relative viability ([2]; first compound 0.8 µM),relative viability ([2]; first compound 2.53 µM),relative viability ([2]; first compound 8 µM),relative viability ([3]; first compound 0.08 µM),relative viability ([3]; first compound 0.253 µM),relative viability ([3]; first compound 0.8 µM),relative viability ([3]; first compound 2.53 µM),relative viability ([3]; first compound 8 µM),relative viability ([4]; first compound 0.08 µM),relative viability ([4]; first compound 0.253 µM),relative viability ([4]; first compound 0.8 µM),relative viability ([4]; first compound 2.53 µM),relative viability ([4]; first compound 8 µM)
NCI-H1651,0.386,0.371,0.436,0.378,0.26,0.501,0.481,0.584,0.578,0.465,0.505,0.371,0.464,0.345,0.362,0.384,0.468,0.439,0.414,0.368
HCC-827,0.315,0.469,0.313,0.403,0.224,1.02,0.979,1.09,0.896,0.732,0.28,0.296,0.387,0.273,0.15,0.197,0.269,0.233,0.201,0.148
NCI-H2085,0.22,0.264,0.238,0.224,0.258,0.424,0.444,0.439,0.425,0.46,0.228,0.195,0.208,0.191,0.187,0.96,0.769,0.583,0.37,0.397
EPLC-272H,0.311,0.306,0.339,0.407,0.303,0.259,0.295,0.369,,0.339,0.392,0.29,0.351,0.302,0.287,0.24,0.222,0.161,0.171,0.197
A-427,0.645,0.67,0.716,0.658,0.619,0.613,0.7,0.679,0.676,0.676,0.696,0.735,0.671,0.657,0.692,0.728,0.712,0.8,0.762,0.698
ABC-1,0.526,0.65,0.559,0.542,0.432,0.677,0.491,0.94,0.766,0.704,0.531,0.569,0.682,0.472,0.577,0.859,0.908,0.743,0.749,1.08
EMC-BAC-2,0.35,0.332,0.306,0.283,0.316,0.535,0.523,0.535,0.471,0.535,0.279,0.306,0.321,0.315,0.351,1.06,1.05,1.13,1.07,0.992
NCI-H2405,0.206,0.206,0.214,0.201,0.201,0.36,0.499,0.426,0.398,0.366,0.235,0.206,0.22,0.205,0.179,0.706,0.665,0.724,0.665,0.547
NCI-H1993,0.619,0.701,0.596,0.544,0.549,0.709,0.886,0.759,0.864,0.787,0.504,0.634,0.557,0.541,0.572,0.676,0.657,0.685,0.899,0.785
LU99A,0.528,0.608,0.61,0.563,0.442,0.268,0.303,0.32,0.357,0.317,0.507,0.507,0.509,0.556,0.593,0.263,0.387,0.391,0.402,0.305
ChaGo-K-1,0.48,0.614,0.661,0.595,0.542,0.548,0.644,0.683,0.47,0.966,0.548,0.536,0.615,0.494,0.575,0.922,0.826,0.873,0.827,0.838
NCI-H1355,0.619,0.668,0.708,0.64,0.639,0.444,0.437,0.426,0.362,0.365,0.688,0.688,0.721,0.688,0.632,0.691,0.679,0.775,0.65,0.675
NCI-H838,0.251,0.295,0.317,0.267,0.269,0.427,0.364,0.425,0.495,0.404,0.305,0.258,0.273,0.234,0.223,0.892,0.911,0.877,0.77,0.849
NCI-H460,0.37,0.406,0.485,0.577,0.506,0.339,0.363,0.23,0.312,0.378,0.478,0.477,0.526,0.539,0.432,0.564,0.632,0.559,0.665,0.655
HCC-78,0.354,0.388,0.327,0.363,0.239,0.242,0.179,,0.231,0.231,0.405,0.324,0.231,0.235,0.246,0.483,0.697,0.55,0.545,0.507
NCI-H358,0.211,0.2,0.174,0.139,0.196,0.374,0.352,0.373,0.354,0.32,0.158,0.169,0.146,0.165,0.158,0.497,0.631,0.462,0.58,0.515

Cell Line,relative viability ([1]; first compound 0.08 µM),relative viability ([1]; first compound 0.253 µM),relative viability ([1]; first compound 0.8 µM),relative viability ([1]; first compound 2.53 µM),relative viability ([1]; first compound 8 µM),relative viability ([2]; first compound 0.08 µM),relative viability ([2]; first compound 0.253 µM),relative viability ([2]; first compound 0.8 µM),relative viability ([2]; first compound 2.53 µM),relative viability ([2]; first compound 8 µM),relative viability ([3]; first compound 0.08 µM),relative viability ([3]; first compound 0.253 µM),relative viability ([3]; first compound 0.8 µM),relative viability ([3]; first compound 2.53 µM),relative viability ([3]; first compound 8 µM),relative viability ([4]; first compound 0.08 µM),relative viability ([4]; first compound 0.253 µM),relative viability ([4]; first compound 0.8 µM),relative viability ([4]; first compound 2.53 µM),relative viability ([4]; first compound 8 µM)
H3255,0.369,0.352,0.255,0.39,0.35,0.466,0.445,0.45,0.492,0.539,0.257,0.417,0.355,0.307,0.342,0.766,0.907,0.932,0.822,0.71
NCI-H1944,0.224,0.248,0.219,0.178,0.215,0.335,0.339,0.361,0.342,0.335,0.225,0.202,0.228,0.206,0.181,,0.501,0.453,0.513,0.455
LOU-NH91,0.493,0.589,0.506,0.542,0.489,0.568,0.532,0.528,0.53,0.531,0.561,0.541,0.535,0.571,0.529,0.73,0.758,0.746,0.789,0.714
NCI-H2347,0.331,0.276,0.28,0.284,0.314,0.608,0.798,0.433,0.58,0.428,0.242,0.318,0.313,0.244,0.269,0.639,0.61,0.639,0.583,0.547
CAL-12T,0.389,0.353,0.435,0.36,0.362,,0.415,0.376,,0.519,0.365,0.34,0.383,0.31,0.373,0.637,0.656,0.542,0.577,0.666
RERF-LC-KJ,0.765,0.889,0.854,0.771,0.657,0.488,0.57,0.551,0.466,0.481,0.692,0.795,0.811,0.764,0.744,0.909,0.926,0.965,0.863,0.949
NCI-H650,0.45,0.449,0.428,0.474,0.428,0.893,0.768,0.831,0.92,0.777,0.44,0.402,0.424,0.393,0.429,0.769,0.902,0.926,1.12,0.904
NCI-H1395,0.382,0.368,0.45,0.381,0.421,0.571,0.531,0.572,0.676,0.523,0.399,0.383,0.406,0.348,0.362,0.398,0.383,0.385,0.413,0.39
LXF-289,0.185,0.188,0.223,0.23,0.231,0.789,0.751,0.711,0.746,0.729,0.209,0.254,0.194,0.18,0.203,1.12,1.12,1.06,1.03,1.08
PC-14,0.244,0.261,0.272,0.27,0.239,0.695,0.61,0.612,0.685,0.625,0.246,0.22,0.3,0.272,0.221,0.316,0.329,0.34,0.33,0.289
EKVX,0.47,0.724,0.671,0.621,0.403,0.337,0.458,0.448,0.39,0.404,0.399,0.523,0.432,0.493,0.365,0.685,0.607,0.601,0.579,0.594
NCI-H322M,0.245,0.244,0.234,0.243,0.273,0.399,0.479,0.525,0.477,0.478,0.231,0.242,0.244,0.247,0.224,0.578,0.569,0.636,0.571,0.546
LC-2-ad,0.367,0.545,0.426,0.694,0.475,0.453,,0.444,0.491,0.473,0.459,0.51,0.66,0.55,0.505,0.832,0.823,0.832,0.777,0.736
NCI-H596,0.568,0.678,0.713,0.557,0.476,0.4,0.439,0.409,0.389,0.466,0.593,0.531,0.585,0.522,0.563,1.05,0.904,1.11,0.942,1.03
LCLC-97TM1,0.767,0.979,0.98,0.936,0.806,0.197,0.196,0.165,0.164,0.188,0.902,0.73,0.779,0.742,0.791,0.139,0.273,0.247,0.128,0.277
NCI-H1437,0.32,0.363,0.344,0.456,0.371,0.439,0.359,0.473,0.462,0.399,0.408,0.427,0.517,0.323,0.356,1.11,1.12,1.11,1.07,1.01
